According to US12171743B2, “Forms of aticaprant” (Janssen Pharmaceuticals, Inc., priority 2022, dated 2024):

What was measured:
subjects with MDD [1] = assay: ASEX sexual functioning score; assay type: in vivo, human
Text: As used herein, the term “decrease in sexual functioning” refers to reducing or lessening of one or more components of the human sex drive, i.e., sexual functioning. In some embodiments, the sexual functioning comprises one or more of sexual drive, sexual arousal, vaginal lubrication, erection, orgasm achievement, or orgasm satisfaction. In other embodiments, the sexual functioning comprises sexual drive. In further embodiments, the sexual functioning comprises vaginal lubrication satisfaction. In further embodiments, the sexual functioning comprises orgasm achievement. In yet other embodiments, the sexual functioning comprises orgasm satisfaction. Desirably, the patient's sexual functioning is assessed at the time of initial administration of the crystalline Form I of aticaprant, crystalline Form II of aticaprant, crystalline Form III of aticaprant, or amorphous aticaprant. Thus, the patient's sexual functioning while taking crystalline Form I of aticaprant, crystalline Form II of aticaprant, crystalline Form III of aticaprant, or amorphous aticaprant can be compared to the patient's sexual functioning before administration of crystalline Form I of aticaprant, crystalline Form II of aticaprant, crystalline Form III of aticaprant, or amorphous aticaprant. Sexual functioning may be assessed by using standard scales and techniques such as the Arizona Sexual Experience Scale (ASEX). The ASEX is used to investigate whether crystalline Form I of aticaprant, crystalline Form II of aticaprant, crystalline Form III of aticaprant, or amorphous aticaprant has a further positive or negative effect on sexual function. The ASEX is 5 item rating scale administered to patients that quantifies sexual drive, sexual arousal, vaginal lubrication or penile erection, ability to reach orgasm and satisfaction. Scores range from 5 to 30, and two different versions of the scale are available (males and females).
Patients had their sexual functioning measured using a standard, well accepted rating scale: ASEX. See, Table 68.

subjects with MDD [2] = assay: Treatment-emergent adverse events, full safety analysis set; assay type: in vivo, human
subjects with MDD [3] = assay: MADRS total score, adjunctive aticaprant vs placebo in MDD (Example 8); settings: for MADRS Total Score: Mean Change from Baseline (SD): aticaprant 10 mg adjunctive to SSRI/SNRI; for MADRS: LSMeans difference estimate, supplementary MMRM analysis (COVID-19 impact): data collected prior to 15 Mar. 2020
[4] = Body weight by treatment group; assay type: in vivo, human
Text: Treatment with crystalline Form I of aticaprant, crystalline Form II of aticaprant, crystalline Form III of aticaprant, or amorphous aticaprant as described herein has several advantages over the treatments in the art. […] As used herein, the term “weight gain” refers to an increase in the weight of patient, relative to the weight of the patient before taking crystalline Form I of aticaprant, crystalline Form II of aticaprant, crystalline Form III of aticaprant, or amorphous aticaprant or the weight of the patient that is assessed at the time of the initial administration of the crystalline Form I of aticaprant, crystalline Form II of aticaprant, crystalline Form III of aticaprant, or amorphous aticaprant. In certain embodiments, the patient may actually see a decrease in overall weight, relative to the weight of the patient before taking crystalline Form I of aticaprant, crystalline Form II of aticaprant, crystalline Form III of aticaprant, or amorphous aticaprant.
At the lead-in baseline timepoint, the mean weight for subjects in the placebo group was 76.17 kg compared to 78.66 in the aticaprant group. After 6 weeks in the double-blind treatment phase, the mean weight in the placebo group was 75.75 kg compared to 78.57 kg in the aticaprant group. […] This is unexpected because other adjunctive treatments for MDD result in a mean weight increase. See, Thase M, et al. J Clin Psych. 2015: 76 (9), 1224-1231; Thase, J Clin Psych. 2015, 76 (9): 1232-1240; El Khalili, Int J Neuropsychopharmacol. 2010, 13, 917-932; Marcus, J. Clin. Psychopharmacol. […] Nashville, Tenn, ACNP, 2008; Earley, American College of Neuropsychopharmacology, 2007, Annual Meeting Abstracts (Boca Raton, Fla, Dec. 9-13, 2007). Nashville, TN, ACNP, 2007). See, Table 65.

subjects with MDD [5] = assay: HAM-A6 total score (anxiety), same study; assay type: in vivo, human; settings: Treatment Week 6
Text: The secondary objectives are: • i. […] To investigate the effect of aticaprant versus placebo on depression related anhedonia as assessed by the SHAPS. • iv. To investigate the effect of aticaprant on symptoms of depression using the Clinical Global Impression-Severity (CGI-S), the patient reported Symptoms of Major Depressive Disorder Scale (SMDDS) and the self-assessment of treatment experience (SATE). • V. To investigate the effect of aticaprant on symptoms of anxiety using the HAM-A and on core symptoms of anxiety using the HAM-A6 subscale. • vi. To assess the plasma PK of aticaprant in subjects with MDD and explore its relationship with efficacy and safety parameters.
• (i) Depression: Montgomery-Åsberg Depression Rating Scale (MADRS), Clinical Global Impression-Severity (CGI-S), Symptoms of Major Depressive Disorder Scale (SMDDS), and Self-assessment of treatment experience (SATE) • (ii) Anhedonia: Snaith-Hamilton Pleasure Scale (SHAPS) • (iii) Anxiety: Structured Interview Guide for the Hamilton Anxiety scale (SIGH-A) and HAM-A6 • (iv) Effects on Cognition: The Cognitive and Physical Functioning Questionnaire (CPFQ) • (v) Safety assessments

[6] = Treatment Period, Full Safety Analysis Set, aticaprant 10 mg (N = 85)
[7] = eITT Analysis Set, High anhedonia (SHAPS Total Score at Treatment Baseline >=38), Treatment Week 6
[8] = fITT Analysis Set, High anhedonia (SHAPS Total Score at Treatment Baseline >=38), Treatment Week 6

## Cc1cc(C)cc(C2CCCN2Cc2ccc(Oc3ccc(C(N)=O)cc3F)cc2)c1 (stereo not shown) [aticaprant, 3-fluoro-4-4-2-(3,5-dimethylphenyl) pyrrolidin-1-yl-methylphenoxybenzamide]
Subjects with MDD [1]; ASEX
  sexual functioning (in words): notable improvements
Subjects with MDD [1]; Baseline, n = 85
  ASEX score: 21.26
Subjects with MDD [1]; to week 6, lower score indicates improvement
  ASEX total score: mean change from treatment baseline (SD): −1.5 (4.02) points
Subjects with MDD [2]; [6]
  Subjects with 1 or more serious TEAE: 0 n
  Subjects with TEAE leading to death: 0 n
  TEAE of Special Interest: Abdominal Pain Upper: 0 n
Subjects with MDD [2]; treatment period
  patients who experienced acute cholecystitis: 0 patients
Subjects with MDD [2]; treatment period, 13/85
  subjects who experienced TEAEs of special interest: 15.3%
Subjects with MDD [2]; treatment period, due to diarrhea, nausea, vomiting and headache
  subjects who discontinued due to treatment-emergent adverse events: 1 subject
Subjects with MDD [2]; treatment period, full safety analysis set, 7/85
  subjects with TEAE diarrhea: 8.2%
Subjects with MDD [2]; treatment period, full safety analysis set, 10/85
  subjects with TEAE headache: 11.8%
Subjects with MDD [2]; treatment period, full safety analysis set, 40/85
  subjects who experienced at least one TEAE: 47.1%
Subjects with MDD [3]; [7]
  MADRS Total Score Effect size: −0.38
  MADRS Total Score Mean Change to Placebo (SD pooled): −3.4 (8.98)
Subjects with MDD [3]; eITT Analysis Set, Low anhedonia (SHAPS Total Score at Treatment Baseline >=20 and <38), Treatment Week 6
  MADRS Total Score Effect size: −0.11
Subjects with MDD [3]; eITT, Treatment Week 1
  MADRS Total Score: Mean Change from Baseline (SD): −3.3
Subjects with MDD [3]; eITT, Treatment Week 3
  MADRS Total Score: Mean Change from Baseline (SD): −5.7
Subjects with MDD [3]; eITT, Treatment Week 4
  MADRS Total Score: Mean Change to Placebo (SD pooled): −0.9 (7.00)
  MADRS Total Score: Mean Change from Baseline (SD): −7.3
Subjects with MDD [3]; eITT, Treatment Week 5
  MADRS Total Score: Mean Change from Baseline (SD): −8.4
Subjects with MDD [3]; eITT, Treatment Week 6
  MADRS Total Score: Mean Change from Baseline (SD): −10.2 (8.44)
Subjects with MDD [3]; eITT
  MADRS: LSMeans difference estimate, supplementary MMRM analysis (COVID-19 impact): −3.0
Subjects with MDD [3]; [8]
  MADRS Total Score Effect size: −0.51
  MADRS Total Score Mean Change to Placebo (SD pooled): −4.6 (9.03)
Subjects with MDD [3]; fITT Analysis Set, Low anhedonia (SHAPS Total Score at Treatment Baseline >=20 and <38), Treatment Week 6
  MADRS Total Score Effect size: −0.29
Subjects with MDD [3]; fITT Analysis Set, Treatment Week 1, MMRM
  MADRS Total Score Change from Baseline LSMean Difference (SE) Treatment-Placebo: −1.6 (1.03)
Subjects with MDD [3]; fITT Analysis Set, Treatment Week 3, MMRM
  MADRS Total Score Change from Baseline LSMean Difference (SE) Treatment-Placebo: −1.9 (1.04)
Subjects with MDD [3]; fITT Analysis Set, Treatment Week 4, MMRM
  MADRS Total Score Change from Baseline LSMean Difference (SE) Treatment-Placebo: −2.5 (1.04)
Subjects with MDD [3]; fITT Analysis Set, Treatment Week 5, MMRM
  MADRS Total Score Change from Baseline LSMean Difference (SE) Treatment-Placebo: −2.4 (1.05)
Subjects with MDD [3]; fITT Analysis Set, Treatment Week 6, MMRM
  MADRS Total Score Change from Baseline LSMean Difference (SE) Treatment-Placebo: −3.1 (1.05)
Subjects with MDD [3]; fITT, Treatment Week 4
  MADRS Total Score: Mean Change to Placebo (SD pooled): −2.3 (7.02)
Subjects with MDD [3]; fITT, Treatment Week 6
  MADRS total score: mean change from treatment baseline (SD): −9.7 (8.02)
Subjects with MDD [3]; fITT, Treatment Week 6, MMRM
  MADRS Total Score: Least Squares Mean Difference aticaprant vs placebo: −3.1
Subjects with MDD [3]; fITT
  MADRS: LSMeans difference estimate, supplementary MMRM analysis (COVID-19 impact): −3.4
[4]; Lead-in Baseline, n = 85
  Mean weight, mean (SE): 78.66 (1.65) kg
[4]; Screening, n = 85
  Mean weight, mean (SE): 78.42 (1.65) kg
[4]; Withdrawal Baseline (after 6 weeks double-blind treatment), n = 85
  Mean weight, mean (SE): 78.57 (1.71) kg
[4]; Withdrawal vs Lead-in, n = 85
  Mean weight Relative % Change: −0.11%
[4]; after 6 weeks in the double-blind treatment phase, lead-in baseline 78.66
  mean weight: 78.57 kg
[4]; in vivo
  weight over the 6-week double blind treatment period (in words): remained relatively stable
[4]; n = 85
  Mean weight Absolute Change (Withdrawal-Lead-in): -0.09 kg
Subjects with MDD [5]
  HAM-A6 score, aticaprant treated patients vs. placebo (in words): greater improvement
Subjects with MDD [5]; aticaprant 10 mg, 59 subjects analyzed
  Change from Treatment Baseline in HAM-A6 Total Score: Arithmetic Mean (SD): −2.73 ± 2.651 scores on a scale
